Results: US20260262643A1, “HERBICIDAL BENZOXAZINES” (FMC CORPORATION, priority 2022, published 2026)

Tests used:
green foxtail [1] = experiment: Test C postemergence; format: in vivo, Setaria viridis; settings: 10 days
Procedure, shortened: (§1)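 Soil-applied (pre) and foliar (post, 1–2 leaf, 2–10 cm) sprays; surfactant-containing non-phytotoxic solvent vehicle; loam/sand substrate. Readout: visual % control at 10 d, greenhouse, versus untreated.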

ragweed [2] = experiment: Test C preemergence; format: in vivo, Ambrosia artemisiifolia; settings: 0 to 100 scale (0 no effect, 100 complete control); for Plant response rating, Ragweed: Preemergence, 500 g ai/ha, visual rating after 10 days; for Ragweed plant response rating: Test C, preemergence, 125 g ai/ha
Procedure, shortened: as §1

barnyardgrass [3] = experiment: Test C preemergence; format: in vivo, Echinochloa crusgalli; settings: 0 to 100 scale (0 no effect, 100 complete control); for Barnyardgrass plant response rating: 125 g ai/ha, preemergence; for Plant response rating, Barnyardgrass: Preemergence, 500 g ai/ha, visual rating after 10 days
Procedure, shortened: as §1

corn [4] = experiment: Test C preemergence; format: in vivo, Zea mays; settings: 0 to 100 scale (0 no effect, 100 complete control); for Plant response rating, Corn: Preemergence, 500 g ai/ha, visual rating after 10 days; for Corn plant response rating: Test C, preemergence, 125 g ai/ha
Procedure, shortened: as §1

barnyardgrass [5] = experiment: Test C postemergence; format: in vivo, Echinochloa crusgalli; settings: 10 days
Procedure, shortened: as §1

blackgrass [6] = experiment: Test C preemergence; format: in vivo, Alopecurus myosuroides; settings: 0 to 100 scale (0 no effect, 100 complete control); for Plant response rating, Blackgrass: Preemergence, 500 g ai/ha, visual rating after 10 days; for Blackgrass plant response rating: Test C, preemergence, 125 g ai/ha
Procedure, shortened: as §1

wheat [7] = experiment: Test C postemergence; format: in vivo, Triticum aestivum; settings: 10 days
Procedure, shortened: as §1

oat, wild [8] = experiment: Test C postemergence; format: in vivo, Avena fatua; settings: 10 days
Procedure, shortened: as §1

kochia [9] = experiment: Test C preemergence; format: in vivo, Bassia scoparia; settings: 0 to 100 scale (0 no effect, 100 complete control); for Plant response rating, Kochia: Preemergence, 500 g ai/ha, visual rating after 10 days; for Kochia plant response rating: Test C, preemergence, 125 g ai/ha
Procedure, shortened: as §1

pigweed, palmer [10] = experiment: Test C postemergence; format: in vivo, Amaranthus palmeri; settings: 10 days
Procedure, shortened: as §1

sedge, umbrella = experiment: Test D flooded paddy test; format: in vivo, Cyperus difformis; settings: 250 g ai/ha, applied to paddy water, visual rating after 13 to 14 days, scale 0 to 100 (0 no effect, 100 complete control)
Procedure, shortened: (§2)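 Seedlings reached the 2-leaf stage, then pots were flooded to 3 cm over the soil surface. Compound was applied into the water, depth was maintained, and plants stayed in the greenhouse 13 to 14 days before visual scoring (0–100) relative to controls.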

ducksalad = experiment: Test D flooded paddy test; format: in vivo, Heteranthera limosa; settings: 250 g ai/ha, applied to paddy water, visual rating after 13 to 14 days, scale 0 to 100 (0 no effect, 100 complete control)
Procedure, shortened: as §2

ryegrass, Italian [11] = experiment: Test C postemergence; format: in vivo, Lolium multiflorum; settings: 10 days
Procedure, shortened: as §1

pigweed, palmer [12] = experiment: Test C preemergence; format: in vivo, Amaranthus palmeri; settings: 0 to 100 scale (0 no effect, 100 complete control); for Plant response rating, Pigweed, Palmer: Preemergence, 500 g ai/ha, visual rating after 10 days; for Pigweed, Palmer plant response rating: Test C, preemergence, 125 g ai/ha
Procedure, shortened: as §1

wheat [13] = experiment: Test C preemergence; format: in vivo, Triticum aestivum; settings: 0 to 100 scale (0 no effect, 100 complete control); for Plant response rating, Wheat: Preemergence, 500 g ai/ha, visual rating after 10 days; for Wheat plant response rating: Test C, preemergence, 125 g ai/ha
Procedure, shortened: as §1

ryegrass, Italian [14] = experiment: Test C preemergence; format: in vivo, Lolium multiflorum; settings: 0 to 100 scale (0 no effect, 100 complete control); for Plant response rating, Ryegrass, Italian: Preemergence, 500 g ai/ha, visual rating after 10 days; for Ryegrass, Italian plant response rating: Test C, preemergence, 125 g ai/ha
Procedure, shortened: as §1

green foxtail [15] = experiment: Test C preemergence; format: in vivo, Setaria viridis; settings: 0 to 100 scale (0 no effect, 100 complete control); for Plant response rating, Foxtail, Green: Preemergence, 500 g ai/ha, visual rating after 10 days; for Foxtail, Green plant response rating: Test C, preemergence, 125 g ai/ha
Procedure, shortened: as §1

oat, wild [16] = experiment: Test C preemergence; format: in vivo, Avena fatua; settings: 0 to 100 scale (0 no effect, 100 complete control); for Plant response rating, Oat, Wild: Preemergence, 500 g ai/ha, visual rating after 10 days; for Oat, Wild plant response rating: Test C, preemergence, 125 g ai/ha
Procedure, shortened: as §1

soybean [17] = experiment: Test C preemergence; format: in vivo, Glycine max; settings: 0 to 100 scale (0 no effect, 100 complete control); for Plant response rating, Soybean: Preemergence, 500 g ai/ha, visual rating after 10 days; for Soybean plant response rating: Test C, preemergence, 125 g ai/ha
Procedure, shortened: as §1

kochia [18] = experiment: Test C postemergence; format: in vivo, Bassia scoparia; settings: 10 days
Procedure, shortened: as §1

horseweed = experiment: Test C postemergence; format: in vivo, Erigeron canadensis; settings: 10 days
Procedure, shortened: as §1

corn [19] = experiment: Test C postemergence; format: in vivo, Zea mays; settings: 10 days
Procedure, shortened: as §1

soybean [20] = experiment: Test C postemergence; format: in vivo, Glycine max; settings: 10 days
Procedure, shortened: as §1

barnyardgrass [21] = experiment: Test D flooded paddy test; format: in vivo, Echinochloa crus-galli; settings: 250 g ai/ha, applied to paddy water, visual rating after 13 to 14 days, scale 0 to 100 (0 no effect, 100 complete control)
Procedure, shortened: as §2

galium = experiment: Test C postemergence; format: in vivo, Galium aparine; settings: 10 days
Procedure, shortened: as §1

ragweed [22] = experiment: Test C postemergence; format: in vivo, Ambrosia artemisiifolia; settings: 10 days
Procedure, shortened: as §1

rice = experiment: Test D flooded paddy test; format: in vivo, Oryza sativa; settings: 250 g ai/ha, applied to paddy water, visual rating after 13 to 14 days, scale 0 to 100 (0 no effect, 100 complete control)
Procedure, shortened: as §2

blackgrass [23] = experiment: Test C postemergence; format: in vivo, Alopecurus myosuroides; settings: 10 days
Procedure, shortened: as §1

[24] = 125 g ai/ha, postemergence, 0 to 100 scale, 0 no effect, 100 complete control
[25] = Postemergence, 500 g ai/ha, visual 0 to 100 scale (0 no effect, 100 complete control)

Compound: C[C@H]1CN(C(=O)c2cc(-n3cnc(C(C)(C)C)n3)cc3c2OCCO3)c2cccc(Cl)c2O1 [Compound 154]
- Plant response rating, Foxtail, Green (green foxtail [1]; [24]): 40
- Plant response rating, Foxtail, Green (green foxtail [1]; [25]): 90
- Plant response rating, Ragweed (ragweed [2]): 100
- Ragweed plant response rating (ragweed [2]): 50
- Barnyardgrass plant response rating (barnyardgrass [3]): 70
- Plant response rating, Barnyardgrass (barnyardgrass [3]): 100
- Plant response rating, Corn (corn [4]): 30
- Corn plant response rating (corn [4]): 0
- Plant response rating, Barnyardgrass (barnyardgrass [5]; [24]): 20
- Plant response rating, Barnyardgrass (barnyardgrass [5]; [25]): 50
- Plant response rating, Blackgrass (blackgrass [6]): 60
- Blackgrass plant response rating (blackgrass [6]): 20
- Plant response rating, Wheat (wheat [7]; [24]): 10
- Plant response rating, Wheat (wheat [7]; [25]): 30
- Plant response rating, Oat, Wild (oat, wild [8]; [24]): 10
- Plant response rating, Oat, Wild (oat, wild [8]; [25]): 20
- Plant response rating, Kochia (kochia [9]): 100
- Kochia plant response rating (kochia [9]): 100
- Plant response rating, Pigweed, Palmer (pigweed, palmer [10]; [24]): 90
- Plant response rating, Pigweed, Palmer (pigweed, palmer [10]; [25]): 100
- Plant response rating, Sedge, Umbrella (Flood) (sedge, umbrella): 70
- Plant response rating, Ducksalad (Flood) (ducksalad): 10
- Plant response rating, Ryegrass, Italian (ryegrass, Italian [11]; [24]): 30
- Plant response rating, Ryegrass, Italian (ryegrass, Italian [11]; [25]): 70
- Plant response rating, Pigweed, Palmer (pigweed, palmer [12]): 100
- Pigweed, Palmer plant response rating (pigweed, palmer [12]): 100
- Plant response rating, Wheat (wheat [13]): 60
- Wheat plant response rating (wheat [13]): 10
- Plant response rating, Ryegrass, Italian (ryegrass, Italian [14]): 90
- Ryegrass, Italian plant response rating (ryegrass, Italian [14]): 70
- Plant response rating, Foxtail, Green (green foxtail [15]): 100
- Foxtail, Green plant response rating (green foxtail [15]): 100
- Plant response rating, Oat, Wild (oat, wild [16]): 30
- Oat, Wild plant response rating (oat, wild [16]): 20
- Plant response rating, Soybean (soybean [17]): 100
- Soybean plant response rating (soybean [17]): 40
- Plant response rating, Kochia (kochia [18]; [24]): 100
- Plant response rating, Kochia (kochia [18]; [25]): 100
- Plant response rating, Horseweed (horseweed; [24]): 80
- Plant response rating, Horseweed (horseweed; [25]): 70
- Plant response rating, Corn (corn [19]; [24]): 20
- Plant response rating, Corn (corn [19]; [25]): 50
- Plant response rating, Soybean (soybean [20]; [24]): 90
- Plant response rating, Soybean (soybean [20]; [25]): 100
- Plant response rating, Barnyardgrass (Flood) (barnyardgrass [21]): 15
- Plant response rating, Galium (galium; [24]): 100
- Plant response rating, Galium (galium; [25]): 100
- Plant response rating, Ragweed (ragweed [22]; [24]): 100
- Plant response rating, Ragweed (ragweed [22]; [25]): 100
- Plant response rating, Rice (Flood) (rice): 10
- Plant response rating, Blackgrass (blackgrass [23]; [24]): 20
- Plant response rating, Blackgrass (blackgrass [23]; [25]): 90

Compound: Cc1ccc(-n2cnc(C3CCC3)n2)cc1C(=O)N1CC(C(F)(F)F)Oc2c(Cl)cccc21 (single isomer, unassigned) [Compound 219]
- Plant response rating, Foxtail, Green (green foxtail [1]; [24]): 80
- Plant response rating, Foxtail, Green (green foxtail [1]; [25]): 90
- Plant response rating, Ragweed (ragweed [2]): 70
- Ragweed plant response rating (ragweed [2]): 30
- Plant response rating, Barnyardgrass (barnyardgrass [3]): 100
- Barnyardgrass plant response rating (barnyardgrass [3]; Test C): 80
- Plant response rating, Corn (corn [4]): 20
- Corn plant response rating (corn [4]): 10
- Plant response rating, Barnyardgrass (barnyardgrass [5]; [24]): 70
- Plant response rating, Barnyardgrass (barnyardgrass [5]; [25]): 100
- Plant response rating, Blackgrass (blackgrass [6]): 40
- Blackgrass plant response rating (blackgrass [6]): 0
- Plant response rating, Wheat (wheat [7]; [24]): 20
- Plant response rating, Wheat (wheat [7]; [25]): 40
- Plant response rating, Oat, Wild (oat, wild [8]; [24]): 10
- Plant response rating, Oat, Wild (oat, wild [8]; [25]): 40
- Plant response rating, Kochia (kochia [9]): 100
- Kochia plant response rating (kochia [9]): 90
- Plant response rating, Pigweed, Palmer (pigweed, palmer [10]; [24]): 100
- Plant response rating, Pigweed, Palmer (pigweed, palmer [10]; [25]): 100
- Plant response rating, Sedge, Umbrella (Flood) (sedge, umbrella): 50
- Plant response rating, Ducksalad (Flood) (ducksalad): 50
- Plant response rating, Ryegrass, Italian (ryegrass, Italian [11]; [24]): 50
- Plant response rating, Ryegrass, Italian (ryegrass, Italian [11]; [25]): 70
- Plant response rating, Pigweed, Palmer (pigweed, palmer [12]): 100
- Pigweed, Palmer plant response rating (pigweed, palmer [12]): 100
- Plant response rating, Wheat (wheat [13]): 50
- Wheat plant response rating (wheat [13]): 20
- Plant response rating, Ryegrass, Italian (ryegrass, Italian [14]): 80
- Ryegrass, Italian plant response rating (ryegrass, Italian [14]): 90
- Plant response rating, Foxtail, Green (green foxtail [15]): 100
- Foxtail, Green plant response rating (green foxtail [15]): 100
- Plant response rating, Oat, Wild (oat, wild [16]): 70
- Oat, Wild plant response rating (oat, wild [16]): 30
- Plant response rating, Soybean (soybean [17]): 90
- Soybean plant response rating (soybean [17]): 70
- Plant response rating, Kochia (kochia [18]; [24]): 80
- Plant response rating, Kochia (kochia [18]; [25]): 90
- Plant response rating, Horseweed (horseweed; [25]): 70
- Plant response rating, Corn (corn [19]; [24]): 20
- Plant response rating, Corn (corn [19]; [25]): 30
- Plant response rating, Soybean (soybean [20]; [24]): 100
- Plant response rating, Soybean (soybean [20]; [25]): 100
- Plant response rating, Barnyardgrass (Flood) (barnyardgrass [21]): 10
- Plant response rating, Galium (galium; [24]): 100
- Plant response rating, Galium (galium; [25]): 100
- Plant response rating, Ragweed (ragweed [22]; [24]): 50
- Plant response rating, Ragweed (ragweed [22]; [25]): 90
- Plant response rating, Rice (Flood) (rice): 0
- Plant response rating, Blackgrass (blackgrass [23]; [24]): 40
- Plant response rating, Blackgrass (blackgrass [23]; [25]): 50
